Measurements taken from US20190062305A1, “PYRIDYL OR PYRAZINYL COMPOUNDS CARRYING A METHYL-BOUND ALPHA-AMINO ACID AMIDE GROUP” (ABBVIE DEUTSCHLAND GMBH & CO. KG, priority 2015, published 2019).
Structures can show the parent of a compound that is named as a salt. Where two headings read alike, the source gives them in different places.

Assays:
[1] = Metabolic stability in human liver microsomes, unbound intrinsic clearance (Cl int/fu mic); assay type: in vitro ADME; conditions: 0.5 μM compound, NADPH; for CLint scaled at 0.5 μM: pH 7.4, human liver microsomes 0.25 mg/mL, read-out: Cl int, mic unb. (h) [l/h/kg] (unbound intrinsic clearance, human)
Experimental: Samples of the tested compounds (0.5 μM) were preincubated together with human liver microsomes (0.25 mg of microsomal protein/mL) in 0.05 M potassium phosphate buffer of pH 7.4 in microtiter plates at 37° C. for 5 minutes. The reaction was started by adding NADPH (1.0 mM). After 0, 5, 10, 15, 20 and 30 minutes, an aliquot was removed, the reaction was cooled and stopped by adding twice the amount of quench solution consisting of acetonitrile/methanol 1:1, and containing 0.2 μM carbutamide as internal standard. The samples were frozen until analyzed. The remaining concentration of undegraded test substance was determined by liquid chromatography-tandem mass spectrometry (LC-MS/MS). The half-life (t1/2) was determined from the gradient of the ratio of the signal of (test substance/internal standard)/unit time plot, allowing the calculation of the half-life of the test substance, assuming first order kinetics, from the decrease in the concentration of the compound with time. The microsomal clearance ([…]) was calculated as follows: […]=((ln(2)/t 1⁄2)/Microsomal Protein Concentration (mg/ml))*1000, leading to the unit of uL/min/mg. The scaled clearance (mClin_scaled) was calculated as […]_scaled=m CLint*(Microsomal Yield (mg/kg BW))/1000000*60, leading to the units L/h/kg. The Microsomal Yield is defined by the specifics of the used microsomes. Calculations were modified from references: Di, The Society for Biomolecular Screening, 2003, 453-462; Obach, D M D, 1999 vol 27. N 11, 1350-1359. A suspension of 0.25 mg/ml microsomal protein spiked with 0.5 μM of test compound was pipetted on one side of a HTDialysis device (HTDialysis LLC, 37 Ledgewood Drive, Gales Fery CT 06335) separated by a membrane with a MWcut off 12-14 K. 50 mM K-Phosphate buffer (pH 7.4) was added on the other side of the well. After incubation at 37° C. for 4 h while shaking at 150 rpm, aliquots of both sides were taken, quenched with MeOH/ACN 1:1 and 0.2 μM of internal standard and frozen until analysis by LCMSMS Cl int unbound=Cl int/fu mic

[2] = biological target: T1, 5-HT2C receptor (Homo sapiens, UniProt P28335); assay: Human 5-HT2C functional assay (beta-arrestin2 recruitment, U2OS_HTR2C_β-Arrestin cells); assay type: cell-based; conditions: for EC50: beta-arrestin2 recruitment, U2OS_HTR2C_β-Arrestin cells, 1.5 h incubation, read-out: EC50 5-HT2C (potency in functional assay)
T1 construct: host or cells: U2OS
T1 sequence (P28335 33-458): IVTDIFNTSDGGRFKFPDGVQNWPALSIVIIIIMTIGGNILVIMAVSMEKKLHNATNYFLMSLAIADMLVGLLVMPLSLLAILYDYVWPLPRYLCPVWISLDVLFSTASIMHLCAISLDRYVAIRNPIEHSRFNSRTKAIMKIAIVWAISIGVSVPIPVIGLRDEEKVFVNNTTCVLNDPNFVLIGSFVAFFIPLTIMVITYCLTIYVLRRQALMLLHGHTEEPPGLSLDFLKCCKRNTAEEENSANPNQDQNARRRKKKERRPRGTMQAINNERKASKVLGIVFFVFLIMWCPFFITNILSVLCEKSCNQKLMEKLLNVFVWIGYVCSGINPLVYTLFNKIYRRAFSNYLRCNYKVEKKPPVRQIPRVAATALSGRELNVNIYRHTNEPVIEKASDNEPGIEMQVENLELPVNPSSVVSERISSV
T1 sequence (P32121 whole entry partner): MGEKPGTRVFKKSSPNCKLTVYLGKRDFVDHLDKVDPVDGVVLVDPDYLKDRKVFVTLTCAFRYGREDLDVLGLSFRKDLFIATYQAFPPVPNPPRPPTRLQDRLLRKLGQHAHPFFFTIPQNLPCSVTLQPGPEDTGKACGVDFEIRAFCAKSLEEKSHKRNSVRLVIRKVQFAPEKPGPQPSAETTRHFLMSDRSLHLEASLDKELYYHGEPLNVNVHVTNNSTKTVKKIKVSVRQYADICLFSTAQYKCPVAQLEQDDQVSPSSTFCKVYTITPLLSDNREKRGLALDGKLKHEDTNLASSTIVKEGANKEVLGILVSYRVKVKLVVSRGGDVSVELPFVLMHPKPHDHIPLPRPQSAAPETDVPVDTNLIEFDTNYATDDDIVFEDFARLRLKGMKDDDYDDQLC
Experimental: The functional activity of compounds of formula I was assayed by incubation with U2OS_HTR2C_β-Arrestin cells (DiscoverX, 93-0289C3) to induce beta-arrestin2 recruitment to the 5-HT2C receptor. The agonist-induced recruitment and proximity of the receptor and beta-arrestin2 leads to complementation and formation of active β-galactosidase. The enzyme complementation results in enzyme activity, which is measured following the termination of the agonist incubation using DiscoveRx's detection reagent, which contains a chemiluminescent substrate which produces a high intensity signal. Cells were plated and a medium-change to a 1% serum containing medium was performed 24h later. The next day, test compounds were added and incubated for 1.5 h before addition of detection reagent.
The response produced was measured and compared with the response produced by 10 [mu]M 5-HT or the maximal effect induced by 5-HT (defined as 100%) to which it was expressed as a percentage response (relative efficacy). Dose response curves were constructed using Graphpad Prism (Graph Software Inc.) or using in house adapted software using a 4 parameter dose response model with variable slope (fit=(Bottom+(Top-Bottom)/(1+10^∧((Log EC50−x)*HillSlope))res=(y-fit)). Results are compiled in the table below.

[3] = relative efficacy vs response to 10 μM 5-HT or maximal 5-HT effect (100%)

Compound | CLint scaled at 0.5 μM ([1]; human, liver microsomes) [L/h/kg] | EC50 [2] [nM] | Emax [2, 3] [%] | CLint scaled at 0.5 μM [1] [L/h/kg] | Cl int, mic unb. (h) [l/h/kg] (unbound intrinsic clearance, human) ([1]; human liver microsomes 0.25 mg/mL) | % efficacy [2, 3]
COc1nc(OCC2CC2(F)F)c(F)cc1CN(C)C(=O)[C@@H]1CCCN1 (stereo partly drawn) [Example 77, (2S)—N-[[6-[(2,2-Difluorocyclopropyl)methoxy]-5-fluoro-2-methoxy-3-pyridyl]-methyl]-N-methyl-pyrrolidine-2-carboxamide Hydrochloride] | < 5 | < 20 | > 70 | – | – | –
COc1nc(OCC2(C(F)(F)F)CC2)c(F)cc1CN(C)C(=O)[C@@H]1CCCN1 [Example 76, (2S)—N-[[5-Fluoro-2-methoxy-6-[[1-(trifluoromethyl)cyclopropyl]methoxy]-3-pyridyl]methyl]-N-methyl-pyrrolidine-2-carboxamide Hydrochloride] | < 5 | < 20 | > 70 | – | – | –
COc1nc(OCC2CC(F)(F)C2)c(F)cc1CNC(=O)[C@@H]1CCCN1 [Example 42, (2S)—N-[[6-[(3,3-Difluorocyclobutyl)methoxy]-5-fluoro-2-methoxy-3-pyridyl]-methyl]pyrrolidine-2-carboxamide; Succinic Acid] | < 5 | < 20 | > 70 | – | – | –
COc1nc(N2CC(Cc3ccccc3)C2)c(F)cc1CNC(=O)[C@@H]1CCCN1 [Example 194, (2S)—N-[[6-(3-Benzylazetidin-1-yl)-5-fluoro-2-methoxy-3-pyridyl]methyl]-pyrrolidine-2-carboxamide] | 50 to 500 | 20 to 200 | > 70 | – | – | –
COc1nc(OCC(F)(F)F)c(F)cc1CNC(=O)[C@@H]1CCCN1C [Example 100, (2S)—N-[[5-Fluoro-2-methoxy-6-(2,2,2-trifluoroethoxy)-3-pyridyl]methyl]-1-methyl-pyrrolidine-2-carboxamide Hydrochloride] | < 5 | < 20 | > 70 | – | – | –
COc1nc(OCC2CCC(F)(F)CC2)c(F)cc1CNC(=O)[C@@H]1CCCN1C [Example 9, (2S)—N-[[6-[(4,4-Difluorocyclohexyl)methoxy]-5-fluoro-2-methoxy-3-pyridyl]methyl]-1-methyl-pyrrolidine-2-carboxamide; Fumaric Acid] | 5 to 50 | < 20 | > 70 | – | – | –
COc1nc(OCC2CC2(F)F)c(F)cc1CNC(=O)[C@@H]1CCCN1C (stereo partly drawn) [Example 68, (2S)—N-[[6-[(2,2-Difluorocyclopropyl)methoxy]-5-fluoro-2-methoxy-3-pyridyl]-methyl]-1-methyl-pyrrolidine-2-carboxamide Hydrochloride] | < 5 | < 20 | > 70 | – | – | –
COc1nc(N2CCCC3(C2)CC3(F)F)c(F)cc1CNC(=O)[C@@H]1CCCN1 (stereo partly drawn) [Example 188, (2S)—N-[[6-(2,2-Difluoro-7-azaspiro[2.5]octan-7-yl)-5-fluoro-2-methoxy-3-pyridyl]methyl]pyrrolidine-2-carboxamide; 2,2,2-trifluoroacetic Acid] | – | 20 to 200 | > 70 | 5 to 50 | – | –
COc1nc(NC2CCC(F)(F)CC2)c(F)cc1CNC(=O)[C@@H]1CCCN1 [Example 126, (2S)—N-[[6-[(4,4-Difluorocyclohexyl)amino]-5-fluoro-2-methoxy-3-pyridyl]methyl]pyrrolidine-2-carboxamide; 2,2,2-trifluoroacetic Acid] | < 5 | < 20 | > 70 | – | – | –
COc1nc(OCCCC(F)(F)F)c(F)cc1CNC(=O)[C@@H]1CCCN1 [Example 40, (2S)—N-[[5-Fluoro-2-methoxy-6-(4,4,4-trifluorobutoxy)-3-pyridyl]methyl]-pyrrolidine-2-carboxamide; Succinic Acid] | < 5 | < 20 | > 70 | – | – | –
COc1nc(-c2ccccc2)c(F)cc1CNC(=O)[C@@H]1CCCN1 [Example 125, (2S)—N-[(5-Fluoro-2-methoxy-6-phenyl-3-pyridyl)methyl]pyrrolidine-2-carboxamide; 2,2,2-trifluoroacetic Acid] | 5 to 50 | 200 to 1000 | > 70 | – | – | –
COc1nc(OC[C@@H]2CCC(F)(F)C2)c(F)cc1CNC(=O)[C@H]1CCCN1C [Example 25, (2R)—N-[[6-[[(1R)-3,3-Difluorocyclopentyl]methoxy]-5-fluoro-2-methoxy-3-pyridyl]methyl]-1-methyl-pyrrolidine-2-carboxamide; Fumaric Acid] | < 5 | 20 to 200 | 50 to 70 | – | – | –
COc1nc(OCC(F)(F)C(F)(F)F)c(F)cc1CNC(=O)[C@@H]1CCCN1 [Example 18, (2S)—N-[[5-Fluoro-2-methoxy-6-(2,2,3,3,3-pentafluoropropoxy)-3-pyridyl]methyl]-pyrrolidine-2-carboxamide; Succinic Acid] | < 5 | < 20 | > 70 | – | – | –
COc1nc(OC2CCC(C(F)(F)F)CC2)c(F)cc1CNC(=O)[C@@H]1C[C@@H](C)CN1C (stereo partly drawn) [Example 62, (2S,4R)—N-[[5-Fluoro-2-methoxy-6-[4-(trifluoromethyl)cyclohexoxy]-3-pyridyl]methyl]-1,4-dimethyl-pyrrolidine-2-carboxamide Hydrochloride] | 50 to 500 | 20 to 200 | > 70 | – | – | –
COc1nc(OCC2CCC(C(F)(F)F)CC2)c(F)cc1CNC(=O)[C@@H]1CCCN1 (stereo partly drawn) [Example 14, (2S)—N-[[5-Fluoro-2-methoxy-6-[[4-(trifluoromethyl)cyclohexyl]methoxy]-3-pyridyl]methyl]pyrrolidine-2-carboxamide; Fumaric Acid] | 50 to 500 | < 20 | > 70 | – | – | –
COc1nc(OC2CC(C(F)(F)F)C2)c(F)cc1CNC(=O)[C@@H]1CCCN1 (stereo partly drawn) [Example 105, (2S)—N-[[5-Fluoro-2-methoxy-6-[3-(trifluoromethyl)cyclobutoxy]-3-pyridyl]-methyl]pyrrolidine-2-carboxamide Hydrochloride] | 5 to 50 | < 20 | > 70 | – | – | –
COc1nc(N2CC(C)(Oc3ccccc3)C2)c(F)cc1CNC(=O)[C@@H]1CCCN1 [Example 176, (2S)—N-[[5-Fluoro-2-methoxy-6-(3-methyl-3-phenoxy-azetidin-1-yl)-3-pyridyl]methyl]pyrrolidine-2-carboxamide; 2,2,2-trifluoroacetic Acid] | 5 to 50 | < 20 | > 70 | – | – | –
COc1nc(OC2CC(F)(F)C2)c(F)cc1CN(C)C(=O)[C@@H]1CCCN1 [Example 78, (2S)—N-[[6-(3,3-Difluorocyclobutoxy)-5-fluoro-2-methoxy-3-pyridyl]methyl]-N-methyl-pyrrolidine-2-carboxamide Hydrochloride] | < 5 | < 20 | > 70 | – | – | –
COc1nc(NCCCc2ccccc2)c(F)cc1CNC(=O)[C@@H]1CCCN1 [Example 185, (2S)—N-[[5-Fluoro-2-methoxy-6-(3-phenylpropylamino)-3-pyridyl]methyl]-pyrrolidine-2-carboxamide; 2,2,2-trifluoroacetic acid] | 5 to 50 | 20 to 200 | > 70 | – | – | –
COc1nc(N[C@H]2CC[C@@H](C(F)(F)F)CC2)c(F)cc1CNC(=O)[C@@H]1CCCN1.Cl [Example 142, (2S)—N-[[5-Fluoro-2-methoxy-6-[[cis-4-(trifluoromethyl)cyclohexyl]amino]-3-pyridyl]methyl]pyrrolidine-2-carboxamide Hydrochloride] | – | < 20 | – | – | ++ (from 5 to <50 l/h/kg) | +++ (>70%)
